Reference: ChEMBL document CHEMBL4610069, “Chetocochliodins A-I, Epipoly(thiodioxopiperazines) from Chaetomium cochliodes” (J Nat Prod, 2020)
Calls of active or inactive are those of the source. No cut-off for these calls is given here.

Legend:
Type in all cases: functional, cell-based
HeLa [1] = test: Cytotoxicity against human HeLa cells by MTT assay
A549 [2] = test: Cytotoxicity against human A549 cells by MTT assay
Huh-7 [3] = test: Cytotoxicity against human HuH7 cells by MTT assay
Huh-7 [4] = test: Cytotoxicity against human HuH7 cells up to 100 uM by MTT assay
HeLa [5] = test: Cytotoxicity against human HeLa cells up to 100 uM by MTT assay
A549 [6] = test: Cytotoxicity against human A549 cells up to 100 uM by MTT assay

Structure (SMILES): CS[C@]1(CO)NC(=O)[C@](Cc2c[nH]c3ccccc23)(SC)NC1=O
- Activity (HeLa [1]): inactive
- Activity (A549 [2]): inactive
- Activity (Huh-7 [3]): inactive

Structure (SMILES): CO[C@]1(CO)NC(=O)[C@](Cc2c[nH]c3ccccc23)(OC)NC1=O
- Activity (Huh-7 [4]): inactive
- Activity (HeLa [5]): inactive
- Activity (A549 [6]): inactive

Structure (SMILES): CN1C(=O)[C@]2(Cc3c[nH]c4ccccc34)SSSS[C@@]1(CO)C(=O)N2C
- IC50 (HeLa [1]): 930 to 2450 nM
- IC50 (A549 [2]): 930 to 2450 nM
- IC50 (Huh-7 [3]): 930 to 2450 nM

Structure (SMILES): CO[C@]1(CO)NC(=O)[C@@](Cc2c[nH]c3ccccc23)(OC)NC1=O
- Activity (Huh-7 [4]): inactive
- Activity (HeLa [5]): inactive
- Activity (A549 [6]): inactive

Structure (SMILES): CO[C@]1(CO)NC(=O)[C@](Cc2c[nH]c3ccccc23)(SC)NC1=O
- Activity (HeLa [1]): inactive
- Activity (A549 [2]): inactive
- Activity (Huh-7 [3]): inactive

Structure (SMILES): CO[C@@]1(CO)NC(=O)[C@](Cc2c[nH]c3ccccc23)(SC)NC1=O
- Activity (HeLa [1]): inactive
- Activity (A549 [2]): inactive
- Activity (Huh-7 [3]): inactive

Structure (SMILES): CO[C@]1(Cc2c[nH]c3ccccc23)NC(=O)[C@H](CO)N(C)C1=O
- Activity (Huh-7 [4]): inactive
- Activity (HeLa [5]): inactive
- Activity (A549 [6]): inactive
